US20170290882A1, “Specific Combined Therapy of Malignant Tumors with a Cytostatic and Its Modifier” (priority 2015, published 2017)

Columns and labels:
[1] = during intravenous injection; cited from earlier work
[2] = test system: P388 lymphoplastic leukemia; test: Combined therapy DDP+GMDP-A in the P388 lymphoplastic leukemia model; format: in vivo, mice BDF1; details: single DDP 4 mg/kg i.v. alone
Method: (§1) They were transplanted on the right-side surface of the animal body.
(§2) The animals with tumors were treated in test groups at the early (24 hours after tumor inoculation) and late (5 days after tumor inoculation) terms of the tumor growth using a single cytostatic injection intravenously in a dose equal to ½ or ¼ of therapeutic one and various schedules for GMDP-A injection: • Primary subcutaneous injection of GMDP-A modifier in a single dose 3.75 mg/kg; • Repeated protracted subcutaneous administration of GMDP-A modifier according to different schedules: 4-fold, 9-fold and 20-fold, once per day, in a single dose of 3.75 mg/kg (course dose is 18.75 mg/kg, 37.5 mg/kg and 78.75 mg/kg, correspondingly). Dosage frequency depends upon the model (histological form of transplanted tumor).
(§3) To identify efficiency of the claimed combined therapy, independent medication was carried out as a control after tumor inoculation using one component of binary therapy-cytostatic drug or a modifier. Cytostatic was injected intravenously in amount of ½ or ¼ of therapeutic dose once after 24 hours or 5 days after tumor inoculation; GMDP-A modifier was administered subcutaneously in a single dose of 3.75 mg/kg 5-fold from the 1st day to the 5th day or from the 5th day to the 9th day, or 10-fold from the 1st day to the 10th day or from the 5th day to the 14th day, or 21-fold from the 1st day to the 21st day after tumor inoculation.
Efficiency of the combined therapy—chemotherapy with cisplatin cytostatic (DDP) and bioherapy with GMDP-A was assessed on P388 lymphoplastic leukemia model inoculated to mice BDF1, females, subcutaneously on the right-side body surface.
GMDP-A was administered to mice subcutaneously as a single dose of 3.75 mg/kg every day with different schedules: • Five-fold (total dose is 18.75 mg/kg) on the 1st day to the 5th day or on the 5th day to the 9th day after tumor inoculation; • Ten-fold (total dose is 37.5 mg/kg) on the 1st day to the 10th day or on the 5th day to the 14th day after tumor inoculation; • Twenty-one-fold (total dose is 78.75 mg/kg) on the 1st day to the 21st st day after tumor inoculation.
DDP (Cisplatin, Cisplatin Teva trade mark, manufacturer is Teva Pharmaceutical Industries Ltd., Israel, fabricated at Pharmachemie B.V., the Netherlands) was administered intravenously as a single dose ma 4 mg/kg (½ of therapeutic dose).

B16 melanoma = test: Binary therapy DDP+GMDP-A in the B16 melanoma model; format: in vivo, BDF1 mice; details: single DDP 4 mg/kg i.v. alone
Method: as §1, §2, §3
Efficiency of the combined therapy—chemotherapy with DDP cytostatic and biotherapy with GMDP-A was assessed on B16 melanoma model inoculated to BDF1 mice, females, subcutaneously on the right-side body surface.
GMDP-A was administered to mice subcutaneously as a single dose of 3.75 mg/kg every day with different schedules:
Five-fold (total dose is 18.75 mg/kg) on the 1st day to the 5th day or on the 5th day to the 9th day after tumor inoculation;
Ten-fold (total dose is 37.5 mg/kg) on the 1st day to the 10th day or on the 5th day to the 14th day after tumor inoculation;
DDP (Cisplatin, Cisplatin Teva trade mark, manufacturer is Teva Pharmaceutical Industries Ltd., Israel, fabricated at Pharmachemie B.V., the Netherlands) was administered intravenously as a single dose of 4 mg/kg (½ of therapeutic dose).

[3] = test system: P388 lymphoplastic leukemia; test: Combined therapy different cytostatics+GMDP-A in the P388 lymphoplastic leukemia model; format: in vivo, BDF1 mice; details: single cytostatic alone (DDP 1/2, gemzar 1/2, CP 1/4 therapeutic dose), start 24 hours after inoculation
Method: Anti-tumor efficiency of the claimed combined therapy and comparative monotherapy using only a cytostatic or only GMDP-A modifier was assessed by the criteria commonly used in experimental oncology: tumor volume (TV), tumor growth inhibition (TGI), increase of the animal life time (ILT), tumor metastasis frequency (MF), metastasis inhibition rate (MI).
Comparative study was carried out of the GMDP-A modifying effect relatively different cytostatic agents: cisplatin (DDP), gemzar and cyclophosphan (CP), in the P388 lymphoplastic leukemia model. Efficiency of combined therapy with cytostatics and GMDP-A was assessed while using DDP in amount of ½ therapeutic dose, gemzar as ½ therapeutic dose and CP in amount of ¼ therapeutic dose. Treatment was started on the early term of tumor growth (in 24 hours after inoculation); GMDP-A was injected during 21 days in a daily dose of 3.75 mg/kg. The drug was administered subcutaneously in 2 areas: in the tumor growth area (over the tumor) or in symmetry area (on the opposite side of the tumor node).
The following commercially-available drugs were used: Cyclophosphan Endoxan® trade mark, manufactured by Baxter Oncology GmbH, Germany; Cisplatin, Cisplatin Teva trade mark, manufacturer is Teva Pharmaceutical Industries Ltd., Israel (fabricated at Pharmachemie B. V., the Netherlands); Gemcitabine, Gemcitar trade mark, manufactured by CJSC Biocad, Russia.
1 mg/ml GMDP-A solution for subcutaneous injection was prepared by dissolving GMDP-A lyophilisate in water for injections.

[4] = test system: P388 lymphoplastic leukemia; test: GMDP-A lyophilisate versus final pharmaceutical form, alone and with DDP, in the P388 lymphoplastic leukemia model; format: in vivo, BDF1 mice; details: if given, 21-fold, single
Method: Therapeutic efficiency of GMDP-A lyophilisate and the GMDP-A final pharmaceutical form was compared in the model of P338 lymphoplastic leukemia solid version at the early treatment start (in 24 hour after subcutaneous transplantation of tumor material) as GMDP-A monotherapy (lyophilisate or the final pharmaceutical form) as well as combined administration with DDP.
As a final pharmaceutical form, “GMDP-A, 1 mg/ml solution for subcutaneous injection” sterile solutions were used. They contained GMDP-A and the following auxiliary substances and carriers in pharmaceutically-accepted amounts: sorbitol, disodium edeteate, propylene glycol, water.

CC(=O)N[C@H]1[C@H](O[C@H]2[C@H](O[C@H](C)C(=O)N[C@@H](C)C(=O)N[C@H](CCC(=O)O)C(N)=O)[C@@H](NC(C)=O)C(O)O[C@@H]2CO)O[C@H](CO)[C@@H](O)[C@@H]1O (stereo partly drawn) [GMDP, N-acetyl-D-glucosaminyl-β-(1-4)-N-acetylmuramoyl-L-alanyl-D-isoglutamine]
Pyrogenicity [1]: pyrogenic effect

N.N.[Cl][Pt][Cl] [DDP, cisplatin, reference compound]
Tumor volume ([2]; day 7, early start (1st day)): 37.9 ± 4.5 mm^3 | tumor growth inhibition (TGI) ([2]; day 7, early start (1st day)): 64% | Tumor volume ([2]; day 7, late start (5th day)): 75.4 ± 4.8 mm^3 | tumor growth inhibition (TGI) ([2]; day 7, late start (5th day)): 28% | Tumor volume ([2]; day 9, early start (1st day)): 67.5 ± 7.7 mm^3 | tumor growth inhibition (TGI) ([2]; day 9, early start (1st day)): 53% | Tumor volume ([2]; day 9, late start (5th day)): 65.7 ± 6.2 mm^3 | tumor growth inhibition (TGI) ([2]; day 9, late start (5th day)): 54% | Tumor volume ([2]; day 12, early start (1st day)): 76.7 ± 7.7 mm^3 | tumor growth inhibition (TGI) ([2]; day 12, early start (1st day)): 61% | Tumor volume ([2]; day 12, late start (5th day)): 95.9 ± 8.4 mm^3 | tumor growth inhibition (TGI) ([2]; day 12, late start (5th day)): 51% | Tumor volume ([2]; day 14, early start (1st day)): 155.3 ± 12 mm^3 | tumor growth inhibition (TGI) ([2]; day 14, early start (1st day)): 42% | Tumor volume ([2]; day 14, late start (5th day)): 149.3 ± 11.6 mm^3 | tumor growth inhibition (TGI) ([2]; day 14, late start (5th day)): 44% | Tumor volume ([2]; day 19, early start (1st day)): 374.1 ± 28.4 mm^3 | tumor growth inhibition (TGI) ([2]; day 19, early start (1st day)): 41% | Tumor volume ([2]; day 19, late start (5th day)): 448.9 ± 33.2 mm^3 | tumor growth inhibition (TGI) ([2]; day 19, late start (5th day)): 30% | Average life time ([2]; early start (1st day)): 23 ± 0.7 days | ILT (increase of the animal life time) ([2]; early start (1st day)): −4% | Metastasis MF (tumor metastasis frequency) ([2]; early start (1st day)): 100% | Metastasis MI (metastasis inhibition rate) ([2]; early start (1st day)): 49% | Average life time ([2]; late start (5th day)): 24 ± 0.6 days | ILT (increase of the animal life time) ([2]; late start (5th day)): 0% | Metastasis MF (tumor metastasis frequency) ([2]; late start (5th day)): 100% | Metastasis MI (metastasis inhibition rate) ([2]; late start (5th day)): 50% | Tumor volume (B16 melanoma; day 7, early start (1st day)): 3 ± 3 mm^3 | tumor growth inhibition (TGI) (B16 melanoma; day 7, early start (1st day)): 94% | Tumor volume (B16 melanoma; day 9, early start (1st day)): 13 ± 5 mm^3 | tumor growth inhibition (TGI) (B16 melanoma; day 9, early start (1st day)): 89% | Tumor volume (B16 melanoma; day 9, late start (5th day)): 51 ± 8 mm^3 | tumor growth inhibition (TGI) (B16 melanoma; day 9, late start (5th day)): 56% | Tumor volume (B16 melanoma; day 12, early start (1st day)): 54 ± 18 mm^3 | tumor growth inhibition (TGI) (B16 melanoma; day 12, early start (1st day)): 80% | Tumor volume (B16 melanoma; day 12, late start (5th day)): 163 ± 22 mm^3 | tumor growth inhibition (TGI) (B16 melanoma; day 12, late start (5th day)): 38% | Tumor volume (B16 melanoma; day 14, early start (1st day)): 117 ± 20 mm^3 | tumor growth inhibition (TGI) (B16 melanoma; day 14, early start (1st day)): 69% | Tumor volume (B16 melanoma; day 14, late start (5th day)): 270 ± 45 mm^3 | tumor growth inhibition (TGI) (B16 melanoma; day 14, late start (5th day)): 23% | Tumor volume (B16 melanoma; day 16, early start (1st day)): 232 ± 36 mm^3 | tumor growth inhibition (TGI) (B16 melanoma; day 16, early start (1st day)): 58% | Tumor volume (B16 melanoma; day 16, late start (5th day)): 424 ± 43 mm^3 | tumor growth inhibition (TGI) (B16 melanoma; day 16, late start (5th day)): 24% | Tumor volume (B16 melanoma; day 19, early start (1st day)): 653 ± 176 mm^3 | tumor growth inhibition (TGI) (B16 melanoma; day 19, early start (1st day)): 39% | Tumor volume (B16 melanoma; day 19, late start (5th day)): 1010 ± 173 mm^3 | tumor growth inhibition (TGI) (B16 melanoma; day 19, late start (5th day)): 5% | Average life time (B16 melanoma; early start (1st day)): 28 ± 3 days | ILT (increase of the animal life time) (B16 melanoma; early start (1st day)): 33% | Metastasis MF (tumor metastasis frequency) (B16 melanoma; early start (1st day)): 20% | Metastasis MI (metastasis inhibition rate) (B16 melanoma; early start (1st day)): 99% | Average life time (B16 melanoma; late start (5th day)): 25 ± 3 days | ILT (increase of the animal life time) (B16 melanoma; late start (5th day)): 19% | Metastasis MF (tumor metastasis frequency) (B16 melanoma; late start (5th day)): 100% | Metastasis MI (metastasis inhibition rate) (B16 melanoma; late start (5th day)): 11% | tumor growth inhibition (TGI) ([3]; day 7): 27% | tumor growth inhibition (TGI) ([3]; day 12): 36% | tumor growth inhibition (TGI) ([3]; day 14): 43% | tumor growth inhibition (TGI) ([3]; day 19): 33% | tumor growth inhibition (TGI) ([3]; day 21): 22% | Average life time [3]: 26 ± 1 days | ILT (increase of the animal life time) [3]: 9% | Metastasis MF (tumor metastasis frequency) [3]: 100% | Metastasis MI (metastasis inhibition rate) [3]: 40% | Tumor volume ([4]; day 8, early start (24 hour)): 29.4 ± 5.3 mm^3 | tumor growth inhibition (TGI) ([4]; day 8, early start (24 hour)): 65% | Tumor volume ([4]; day 12, early start (24 hour)): 53.6 ± 5.4 mm^3 | tumor growth inhibition (TGI) ([4]; day 12, early start (24 hour)): 67% | Tumor volume ([4]; day 16, early start (24 hour)): 96.3 ± 5.1 mm^3 | tumor growth inhibition (TGI) ([4]; day 16, early start (24 hour)): 73% | Tumor volume ([4]; day 20, early start (24 hour)): 440 ± 26.7 mm^3 | tumor growth inhibition (TGI) ([4]; day 20, early start (24 hour)): 58% | Average life time ([4]; early start (24 hour)): 30.0 ± 2.8 days | ILT (increase of the animal life time) ([4]; early start (24 hour)): 22% | Metastasis (upper, unnamed value in the Metastasis inhibition index column) ([4]; early start (24 hour)): 172.0 ± 14.4 | Metastasis MF (tumor metastasis frequency) ([4]; early start (24 hour)): 100% | Metastasis inhibition index ([4]; early start (24 hour)): 32%

O=P1(N(CCCl)CCCl)NCCCO1 (stereo not drawn) [CP, cyclophosphan]
tumor growth inhibition (TGI) ([3]; day 7): 89% | tumor growth inhibition (TGI) ([3]; day 12): 86% | tumor growth inhibition (TGI) ([3]; day 14): 85% | tumor growth inhibition (TGI) ([3]; day 19): 76% | tumor growth inhibition (TGI) ([3]; day 21): 77% | Average life time [3]: 31 ± 2 days | ILT (increase of the animal life time) [3]: 30% | Metastasis MF (tumor metastasis frequency) [3]: 100% | Metastasis MI (metastasis inhibition rate) [3]: 89%

Nc1ccn([C@@H]2O[C@H](CO)[C@@H](O)C2(F)F)c(=O)n1 [Gemzar, Gemcitabine]
tumor growth inhibition (TGI) ([3]; day 7): 60% | tumor growth inhibition (TGI) ([3]; day 12): 37% | tumor growth inhibition (TGI) ([3]; day 14): 34% | tumor growth inhibition (TGI) ([3]; day 19): 45% | tumor growth inhibition (TGI) ([3]; day 21): 44% | Average life time [3]: 29 ± 2 days | ILT (increase of the animal life time) [3]: 21% | Metastasis MF (tumor metastasis frequency) [3]: 100% | Metastasis MI (metastasis inhibition rate) [3]: 69%
